The values that follow come from PubChem BioAssay AID328 (DTP/NCI, 2004).

The test system of this assay is BDF1 mice, P388 leukemia ip, median survival T/C. As to the kind of experiment: NCI In Vivo Anticancer Drug Screen. Data for tumor model P388 Leukemia (intraperitoneal) in B6D2F1 (BDF1) mice. Conditions: endpoint: median survival time, higher = longer survival. The method in brief:
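Compound-treated tumour-bearing mice were compared with vehicle-treated controls. Survival was recorded, and the value is the treated-group measurement divided by the control-group measurement (T/C).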

The mark [1] stands for this setting: dose: 50.0 mg/kg/injection, schedule: Q01DX009 (ip), vehicle: saline with Tween-80.
[2] abbreviates: dose: 100.0 mg/kg/injection, schedule: Q01DX009 (ip), vehicle: saline with Tween-80.
The mark [3] stands for this setting: dose: 200.0 mg/kg/injection, schedule: Q01DX009 (ip), vehicle: saline with Tween-80.
The mark [4] stands for this setting: dose: 12.5 mg/kg/injection, schedule: Q04DX003 (ip), vehicle: saline with Tween-80.
Where [5] appears, read: dose: 25.0 mg/kg/injection, schedule: Q04DX003 (ip), vehicle: saline with Tween-80.
Where [6] appears, read: dose: 100.0 mg/kg/injection, schedule: Q04DX003 (ip), vehicle: saline with Tween-80.
[7] abbreviates: dose: 200.0 mg/kg/injection, schedule: Q04DX003 (ip), vehicle: saline with Tween-80.
Where [8] appears, read: dose: 12.5 mg/kg/injection, schedule: Q01DX009 (ip), vehicle: saline with Tween-80.
Where [9] appears, read: dose: 50.0 mg/kg/injection, schedule: Q04DX003 (ip), vehicle: saline.
The mark [10] stands for this setting: dose: 100.0 mg/kg/injection, schedule: Q04DX003 (ip), vehicle: saline.
[11] abbreviates: dose: 50.0 mg/kg/injection, schedule: Q04DX003 (ip), vehicle: saline with Tween-80.
[12] abbreviates: dose: 100.0 mg/kg/injection, schedule: Q04DX003 (ip), vehicle: Klucel (hydroxypropylcellulose) (HPC).
[13] abbreviates: dose: 200.0 mg/kg/injection, schedule: Q01DX009 (ip), vehicle: Klucel (hydroxypropylcellulose) (HPC).
Where [14] appears, read: dose: 200.0 mg/kg/injection, schedule: Q04DX003 (ip), vehicle: Klucel (hydroxypropylcellulose) (HPC).
The mark [15] stands for this setting: dose: 400.0 mg/kg/injection, schedule: Q01DX009 (ip), vehicle: Klucel (hydroxypropylcellulose) (HPC).
Setting [16] is: dose: 400.0 mg/kg/injection, schedule: Q04DX003 (ip), vehicle: Klucel (hydroxypropylcellulose) (HPC).

Each structure is given as a SMILES string. Values joined by “and” are separate entries in the source; they are usually repeats but may differ in a detail not shown here. Identical values can stand only once. Inconclusive results and toxic doses are left out.

As to `CCOC(=O)N(CCN(C(=O)OCC)c1ccccc1)c1ccccc1`, the T/C under setting [1] was 98 % of control, the T/C under setting [2] was 108 % of control and the T/C under setting [3] is 110 % of control.
For the compound `ClCC1CNC(c2ccccc2)O1` (configuration not stated), the T/C under setting [4] is 101 % of control and the T/C under setting [5] is 104 % of control.
On to `CN1CCCN(C)CC1`, for which the T/C is 103 % of control (dose: 75.0 mg/kg/injection, schedule: Q01DX009 (ip), vehicle: saline with Tween-80); 100 % of control under setting [6]; 119 % of control (dose: 150.0 mg/kg/injection, schedule: Q01DX009 (ip), vehicle: saline with Tween-80); 95 % of control under setting [7]; 107 % of control (dose: 300.0 mg/kg/injection, schedule: Q01DX009 (ip), vehicle: saline with Tween-80); 112 % of control (dose: 400.0 mg/kg/injection, schedule: Q04DX003 (ip), vehicle: saline with Tween-80).
In the case of `COc1cc(O)c(Cc2ccccc2O)c(O)c1C(=O)CCc1ccccc1`, the T/C is 100 % of control (dose: 0.5 mg/kg/injection, schedule: Q01DX009 (ip), vehicle: alcohol); 105 % of control (dose: 2.0 mg/kg/injection, schedule: Q01DX009 (ip), vehicle: alcohol); 97 % of control (dose: 4.0 mg/kg/injection, schedule: Q01DX009 (ip), vehicle: alcohol); 119 % of control (dose: 5.9 mg/kg/injection, schedule: Q01DX009 (ip), vehicle: alcohol); 101 % of control (dose: 9.0 mg/kg/injection, schedule: Q01DX009 (ip), vehicle: alcohol).
For the compound `O=[N+]([O-])c1ccc(-[n+]2ccccc2)c([N+](=O)[O-])c1`, the T/C is 118 % of control (dose: 37.5 mg/kg/injection, schedule: Q01DX009 (ip), vehicle: saline); 122 % of control (dose: 75.0 mg/kg/injection, schedule: Q01DX009 (ip), vehicle: saline); 104 % of control (dose: 150.0 mg/kg/injection, schedule: Q01DX009 (ip), vehicle: saline).
In the case of `CCC[CH2][Hg][Cl]`, the T/C runs as follows: (dose: 6.25 mg/kg/injection, schedule: Q04DX003 (ip), vehicle: saline sonified) 115 % of control; (dose: 11.0 mg/kg/injection, schedule: Q01DX009 (ip), vehicle: saline with Tween-80) 100 % of control; under setting [8], 109 % of control; (dose: 12.5 mg/kg/injection, schedule: Q04DX003 (ip), vehicle: saline sonified) 110 % of control; (dose: 16.5 mg/kg/injection, schedule: Q01DX009 (ip), vehicle: saline with Tween-80) 150 % of control; (dose: 16.5 mg/kg/injection, schedule: Q04DX003 (ip), vehicle: saline sonified) 113 % of control. In addition, the T/C was 104 % of control (dose: 25.0 mg/kg/injection, schedule: Q04DX003 (ip), vehicle: saline sonified) and 118 % of control (dose: 37.5 mg/kg/injection, schedule: Q04DX003 (ip), vehicle: saline sonified).
Turning to `Cc1ccc(S(=O)(=O)O)cc1`, the T/C (dose: 25.0 mg/kg/injection, schedule: Q01DX009 (ip), vehicle: saline) was 91 % of control; the T/C (dose: 50.0 mg/kg/injection, schedule: Q01DX009 (ip), vehicle: saline) was 91 % of control; the T/C under setting [9] was 100 % of control; the T/C (dose: 100.0 mg/kg/injection, schedule: Q01DX009 (ip), vehicle: saline) is 108 % of control; the T/C under setting [10] was 95 % of control.
For `Cc1nc(C(N)=O)c(=O)[nH]c1C`, the T/C (dose: 6.25 mg/kg/injection, schedule: Q04DX003 (ip), vehicle: saline) was 104 % of control; the T/C (dose: 12.5 mg/kg/injection, schedule: Q04DX003 (ip), vehicle: saline) was 109 % of control; the T/C (dose: 25.0 mg/kg/injection, schedule: Q04DX003 (ip), vehicle: saline) was 100 % of control; the T/C under setting [9] is 88 % of control; the T/C (dose: 100.0 mg/kg/injection, schedule: Q04DX003 (ip), vehicle: saline sonified) was 104 % of control; the T/C (dose: 200.0 mg/kg/injection, schedule: Q04DX003 (ip), vehicle: saline sonified) is 104 % of control.
Take `CC1(C)OC(COCCOCCO)C(COCCOCCO)O1` (configuration not stated): the T/C runs as follows: under setting [10], 96 % of control; (dose: 200.0 mg/kg/injection, schedule: Q04DX003 (ip), vehicle: saline) 103 % of control; (dose: 400.0 mg/kg/injection, schedule: Q04DX003 (ip), vehicle: saline) 96 % of control.
As to `COC(=O)C(Sc1ccccc1N)C1SC(=S)N(Cc2ccccc2)C1=O` (configuration not stated), the T/C was 95 % of control under setting [1], 104 % of control under setting [2] and 113 % of control under setting [3].
As for `CC(C)(C)OC(=O)NOc1ccc([N+](=O)[O-])cc1[N+](=O)[O-]`, the T/C (dose: 3.12 mg/kg/injection, schedule: Q01DX009 (ip), vehicle: saline with Tween-80) was 117 % of control; the T/C (dose: 6.25 mg/kg/injection, schedule: Q01DX009 (ip), vehicle: saline with Tween-80) was 90 % of control; the T/C (dose: 6.25 mg/kg/injection, schedule: Q04DX003 (ip), vehicle: saline with Tween-80) was 100 % of control; the T/C under setting [8] was 106 % of control and 93 % of control; the T/C under setting [4] is 104 % of control; the T/C (dose: 25.0 mg/kg/injection, schedule: Q01DX009 (ip), vehicle: saline with Tween-80) was 90 % of control and 96 % of control. Moreover, the T/C was 97 % of control under setting [5], 93 % of control under setting [1], 97 % of control under setting [11] and 100 % of control under setting [2].
In the case of `Clc1ccc2c(c1)Nc1cc(Cl)ccc1C=C2`, the T/C was 91 % of control (dose: 75.0 mg/kg/injection, schedule: Q01DX001 (ip), vehicle: saline with Tween-80); 100 % of control (dose: 150.0 mg/kg/injection, schedule: Q01DX001 (ip), vehicle: saline with Tween-80); 100 % of control (dose: 300.0 mg/kg/injection, schedule: Q01DX001 (ip), vehicle: saline with Tween-80).
Take `CC(=O)C(C(c1ccccc1)C1CCCc2ccccc21)N1CCOCC1` (configuration not stated): the T/C runs as follows: (dose: 100.0 mg/kg/injection, schedule: Q01DX009 (ip), vehicle: Klucel (hydroxypropylcellulose) (HPC)) 100 % of control; under setting [12], 105 % of control; under setting [13], 109 % of control; under setting [14], 100 % of control; under setting [15], 104 % of control; under setting [16], 100 % of control.
As to `O=C(O)C(Br)(C(=O)O)c1ccccc1`, the T/C runs as follows: (dose: 100.0 mg/kg/injection, schedule: Q04DX002 (ip), vehicle: saline with Tween-80) 93 % of control; (dose: 200.0 mg/kg/injection, schedule: Q04DX002 (ip), vehicle: saline with Tween-80) 97 % of control; (dose: 400.0 mg/kg/injection, schedule: Q04DX002 (ip), vehicle: saline with Tween-80) 93 % of control.
For the compound `FC(F)(F)c1nc2cccc3c2n1CCC3`, the T/C under setting [11] was 100 % of control and the T/C under setting [6] was 91 % of control.
Take `CCCC(=O)Nc1ccn(C2OC(COC(=O)CCC)C(OC(=O)CCC)C2OC(=O)CCC)c(=O)n1` (configuration not stated): the T/C runs as follows: (dose: 6.25 mg/kg/injection, schedule: Q01DX009 (ip), vehicle: Klucel (hydroxypropylcellulose) (HPC)) 91 % of control; (dose: 12.5 mg/kg/injection, schedule: Q01DX009 (ip), vehicle: Klucel (hydroxypropylcellulose) (HPC)) 100 % of control; (dose: 25.0 mg/kg/injection, schedule: Q01DX009 (ip), vehicle: Klucel (hydroxypropylcellulose) (HPC)) 87 % of control; (dose: 50.0 mg/kg/injection, schedule: Q01DX009 (ip), vehicle: Klucel (hydroxypropylcellulose) (HPC)) 104 % of control; under setting [12], 100 % of control; under setting [13], 165 % of control and 177 % of control. The T/C is 109 % of control under setting [14]; 181 % of control and 190 % of control under setting [15]; 122 % of control under setting [16].
Consider `Nc1nc(=O)n(CC(=O)c2cccs2)cc1F`, for which the T/C under setting [1] was 100 % of control; the T/C under setting [2] was 90 % of control; the T/C under setting [6] was 95 % of control; the T/C under setting [3] is 86 % of control; the T/C under setting [7] was 100 % of control.
